Source: US9572794B2, “Substituted indoles as selective protease activated receptor 4 (PAR-4) antagonists” (Vanderbilt University, priority 2014, dated 2017)

Target: T1, PAR4 (Homo sapiens, UniProt Q96RI0)
T1 construct: 60 μL of washed platelets (Tyrodes buffer containing 0.1% BSA); endogenous in cells
T1 sequence (Q96RI0 18-385): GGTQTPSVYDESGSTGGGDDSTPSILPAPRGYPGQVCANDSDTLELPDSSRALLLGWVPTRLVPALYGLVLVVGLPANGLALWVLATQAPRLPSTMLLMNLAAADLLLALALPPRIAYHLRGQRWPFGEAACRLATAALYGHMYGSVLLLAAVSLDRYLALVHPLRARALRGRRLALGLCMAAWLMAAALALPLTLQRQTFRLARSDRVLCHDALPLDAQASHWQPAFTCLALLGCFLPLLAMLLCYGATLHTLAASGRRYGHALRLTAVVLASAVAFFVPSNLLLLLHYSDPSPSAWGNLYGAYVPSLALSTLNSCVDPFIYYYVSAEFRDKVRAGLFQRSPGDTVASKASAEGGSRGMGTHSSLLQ
Assay: PAC-1 Binding assay (antagonism of PAR4 mediated αIIBβ3 activation, flow cytometry)
Assay type: cell-based
Settings: for % Max PAC-1: washed platelets, 100% response = DMSO treated control stimulated with 200 μM PAR4-AP, mean values; for IC50: washed platelets stimulated with PAR4-AP, PAC-1 binding, sigmoidal dose response, variable slope
Experimental: PAC-1 Binding assay: 60 μL of washed platelets (Tyrodes buffer containing 0.1% BSA) at a concentration of 0.15×10^8 platelets/mL were added to 5 mL round bottom polystyrene tubes (BD, Franklin Lakes, N.J.). FITC conjugated PAC-1 (BD Biosciences, San Jose, Calif.) antibody was diluted (to the manufacturers recommended concentration) in Tyrode's buffer containing 0.1% BSA. 40 μL of diluted antibody was added to the platelets and allowed to incubate for 5 minutes. Platelets were pre-treated with indicated concentrations of antagonist or DMSO control for 5 minutes followed by addition of PAR1-AP (GL Biochem, Shanghai, China) or PAR4-AP for 10 minutes. […] The final DMSO concentration was 0.5%. Platelets were stored up to 18 hours at 4° C. before flow cytometric analysis. Analysis was carried out on a BD FACS Canto II (Franklin Lakes, N.J.). Fluorescent intensity was determined for 100,000 events within the platelet gate. Data was collected and analyzed via FACS DiVa software. Flow cytometric data analysis was conducted by the following method. The DMSO-vehicle treated control was subtracted from each data point. 100% response for PAR4-AP was determined for each individual as the DMSO treated control stimulated with either 200 μM PAR4-AP, or 20 μM PAR1-AP. Data was plotted in GraphPad PRISM v.5.0. For compounds with a notable reduction in PAC-1 binding response, dose response curves and IC50 values were generated using the inhibitory sigmoidal dose response ‘variable slope’ parameter. PAR4 results are plotted as mean values.

SMILES | % Max PAC-1 | IC50
COc1ccc(-c2c(CO)n(Cc3cccc(Br)c3)c3ccc(C#N)cc23)cn1 [Example B31] | 109.1% | 
COc1ccc(-c2c(CO)n(Cc3ccccc3)c3cc(OC(C)C)ccc23)cn1 [Example B72] | 81.76% | 
CSc1ncc(-c2c(CO)n(Cc3ccccc3Cl)c3cc(OC(F)(F)F)ccc23)cn1 [Example B71] | 5.57% | 162 nM
CSc1ccc(-c2c(CO)n(Cc3ccccc3Cl)c3ccc(OC(F)(F)F)cc23)cc1 [Example B73] | 107.63% | 
COc1cccc(Cn2c(CO)c(-c3ccc(OC)nc3)c3cc4c(cc32)OCO4)c1 [Example B45] | 129.1% | 
COc1ccc(-c2c(CO)n(Cc3ccc(F)cc3F)c3ccc(C#N)cc23)cn1 [Example B33] | 105.0% | 
COc1cccc(Cn2c(CO)c(-c3ccc(OC)nc3)c3cc(OC(F)(F)F)ccc32)c1 [Example B11] | 40.9% | 
COc1nn2cc(-c3c(CO)n(Cc4ccccc4Cl)c4ccc(OC(F)(F)F)cc34)nc2s1 [Example B75, (1-(2-chlorobenzyl)-3-(2-methoxyimidazo[2,1-b][1,3,4]thiadiazol-6-yl)-5-(trifluoromethoxy)-1H-indol-2-yl)methanol] | 8.40% | 184 nM
OCc1c(-c2ccc(F)nc2)c2cc(OC(F)(F)F)ccc2n1Cc1ccccc1Cl [Example B57] | 21.05% | 1290 nM
CSc1ncc(-c2c(CO)n(Cc3ccc(F)cc3F)c3ccc(OC(F)(F)F)cc23)cn1 [Example B48] | 14.5% | 1980 nM
CSc1ncc(-c2c(CO)n(Cc3ccccc3Cl)c3cc(OC(C)C)ccc23)cn1 [Example B64] | 18.53% | 1380 nM
COc1ccc(-c2c(CO)n(Cc3cccc(Br)c3)c3cc4c(cc23)OCO4)cn1 [Example B44] | 96.5% | 
COc1ccc(-c2c(CO)n(Cc3ccccc3)c3cc(OC(F)(F)F)ccc23)cn1 [Example B62] | 34.32% | 3710 nM
COc1nn2cc(-c3c(CO)n(Cc4csc(-c5ccccc5)n4)c4ccc(OC(F)(F)F)cc34)nc2s1 [Example B74] | 38.32% | 
COc1ccc(-c2c(CO)n(Cc3csc(-c4ccccc4)n3)c3ccc(OC(F)(F)F)cc23)cn1 [Example B68] | 61.98% | 
COc1ccc(-c2c(CO)n(Cc3ccccc3Cl)c3cc(OC(C)C)ccc23)cn1 [Example B66] | 59.45% | 
COc1ccc(-c2c(CO)n(Cc3ccccn3)c3cc4c(cc23)OCO4)cn1 [Example B38] | 107.2% | 
COc1ccc2c(-c3cnc(SC)nc3)c(CO)n(Cc3ccccc3Cl)c2c1 [Example B60] | 21.33% | 4300 nM
CCOc1ccc2c(-c3cnc(SC)nc3)c(CO)n(Cc3ccccc3Cl)c2c1 [Example B63] | 14.77% | 2150 nM
COc1ccc2c(-c3ccc(OC)nc3)c(CO)n(Cc3ccccc3Cl)c2c1 [Example B59] | 4.31% | 1350 nM
CCOc1ccc2c(-c3ccc(OC)nc3)c(CO)n(Cc3ccccc3Cl)c2c1 [Example B61] | 19.78% | 3840 nM
COc1ccc(-c2c(CO)n(Cc3ccc(C#N)cc3F)c3cc4c(cc23)OCO4)cn1 [Example B40] | 98.6% | 
OCc1c(-c2ccncc2)c2cc(OC(F)(F)F)ccc2n1Cc1ccccc1Cl [Example B47] | 101.7% | 
COc1ncc(-c2c(CO)n(Cc3ccccc3Cl)c3ccc(OC(F)(F)F)cc23)cn1 [Example B54] | 2.01% | 2900 nM
OCc1c(-c2cncnc2)c2cc(OC(F)(F)F)ccc2n1Cc1ccccc1Cl [Example B55] | 101.8% | 
COc1ccc(-c2c(CO)n(Cc3ccccn3)c3ccc(S(C)(=O)=O)cc23)cn1 [Example B27] | 100.1% | 

SMILES | % Max PAC-1 | IC50
CCOc1ncc(-c2c(CO)n(Cc3ccc(F)cc3F)c3ccc(OC(F)(F)F)cc23)cn1 [Example B51] | 48.5% | 
OCc1c(-c2cncnc2)c2cc(OC(F)(F)F)ccc2n1Cc1ccc(F)cc1F [Example B49] | 96.0% | 
COc1ccc(-c2c(CO)n(C)c3ccc(OC(F)(F)F)cc23)cn1 [Example B8] | 93.9% | 
COc1ccc(-c2c(CO)n(Cc3ccccn3)c3ccc(C#N)cc23)cn1 [Example B26] | 113.7% | 
COc1ccc(-c2c(CO)[nH]c3ccc(OC(F)(F)F)cc23)cn1 [Example B67] | 116.1% | 
COc1ccc(-c2c(CO)n(Cc3ccccc3F)c3ccc(OC(F)(F)F)cc23)cn1 [Example B6] | 89.0% | 
COc1ccc(-c2c(CO)n(Cc3ccc(C#N)cc3F)c3ccc(C#N)cc23)cn1 [Example B36] | 108.8% | 
COc1ccc(-c2c(CO)n(Cc3cccc(Cl)c3)c3cc4c(cc23)OCO4)cn1 [Example B39] | 100.1% | 
OCc1c(-c2ccncc2)c2cc(OC(F)(F)F)ccc2n1Cc1ccc(F)cc1F [Example B58] | 102.2% | 
COc1ccc(-c2c(COCc3csc(-c4ccccc4)n3)n(Cc3csc(-c4ccccc4)n3)c3ccc(OC(F)(F)F)cc23)cn1 [Example B70] | 61.82% | 
COc1cccc(Cn2c(CO)c(-c3ccc(OC)nc3)c3cc(C(F)(F)F)ccc32)c1 [Example B13, (1-(3-methoxybenzyl)-3-(6-methoxypyridin-3-yl)-5-(trifluoromethyl)-1H-indol-2-yl)methanol] | 108.5% | 
COc1ccc(-c2c(CO)n(Cc3ccccc3Cl)c3cc(OC(F)(F)F)ccc23)cn1 [Example B65] | 12.25% | 966 nM
CCOc1ncc(-c2c(CO)n(Cc3ccccc3Cl)c3ccc(OC(F)(F)F)cc23)cn1 [Example B52] | 24.0% | 
COc1ccc(-c2c(CO)n(Cc3cccc(Br)c3)c3ccc(S(C)(=O)=O)cc23)cn1 [Example B21] | 74.3% | 
CSc1ccc(-c2c(CO)n(Cc3ccccc3Cl)c3ccc(OC(F)(F)F)cc23)cn1 [Example B76] | 79.22% | 
COc1ccc(-c2c(CO)n(Cc3cccc(Br)c3)c3ccc(OC(F)(F)F)cc23)cn1 [Example B7] | 27.2% | 
COc1ccc(-c2c(CO)n(Cc3cccc(C(F)(F)F)c3)c3ccc(OC(F)(F)F)cc23)cn1 [Example B3] | 59.7% | 
OCc1c(-c2ccc(F)nc2)c2cc(OC(F)(F)F)ccc2n1Cc1ccc(F)cc1F [Example B53] | 48.2% | 
COc1ccc(-c2c(CO)n(Cc3ccccc3)c3ccc(OC(F)(F)F)cc23)cn1 [Example B4] | 53.4% | 
COc1ccc(-c2c(CO)n(Cc3cc(F)cc(F)c3)c3ccc(OC(F)(F)F)cc23)cn1 [Example B5] | 36.5% | 
COc1cc(Cn2c(CO)c(-c3ccc(OC)nc3)c3cc(OC(F)(F)F)ccc32)cc(OC)c1 [Example B10] | 110.6% | 
COc1ncc(-c2c(CO)n(Cc3ccc(F)cc3F)c3ccc(OC(F)(F)F)cc23)cn1 [Example B56] | 53.7% | > 10000 nM
COc1ccc(-c2c(CO)n(Cc3cccc(F)c3)c3ccc(OC(F)(F)F)cc23)cn1 [Example B1] | 80.6% | 
COc1ccc(-c2c(CO)n(CC3CSC(c4ccccc4)=N3)c3ccc(OC(F)(F)F)cc23)cn1 (stereo not drawn) [Example B69] | 89.19% | 
COc1ccc(-c2c(CO)n(Cc3ccc(F)cc3F)c3ccc(OC(F)(F)F)cc23)cn1 [Example B2] | 19.7% | 823 nM
COc1ccc(-c2c(CO)n(Cc3cccc(Cl)c3)c3ccc(OC(F)(F)F)cc23)cn1 [Example B12] | 27.8% | 
